SMILES strings stand for the structures.

One series deals with FGFR1 (Homo sapiens, UniProt P11362). As to the kind of experiment: In vitro kinase activity assay (HDB Kinase Selectivity Profiling). The settings on record: Kinase Glo Plus assay format. Format: biochemical. (Kinase-Glo measures the ATP left after a reaction by luminescence.)
The target in another series is Ephb1 (Homo sapiens, UniProt P54762). Description: In vitro kinase activity assay (Caliper assay format). Type of series: biochemical.
A further series deals with A549. Description: Inhibition of cell proliferation (MTS assay). Format: cell-based. The settings on record: Homo sapiens, A549, c-Met^hiTrkB^hi, 72 h. As for the experimental part: (§1) All experiments were conducted three times.
(In general: Formazan colour is commonly taken as a measure of viable cells.)

For the next series, the system named is BEL-7402. Description: Inhibition of cell proliferation (MTS assay). Format: cell-based. The settings on record: Homo sapiens, BEL-7402, c-Met^loTrkB^lo, 72 h. The protocol:
as §1

For a further series, the system named is HCC-LM3. As to the kind of experiment: Inhibition of cell proliferation (MTS assay). Format: cell-based. The settings on record: Homo sapiens, HCCLM3, HCC-LM3, c-Met^hiTrkB^hi, 72 h. As for the experimental part:
as §1

A further series concerns L02. As to the kind of experiment: Inhibition of cell proliferation (MTS assay). Format: cell-based. The settings on record: Homo sapiens, L02, c-Met^hiTrkB^lo (non-cancerous cells), 72 h. As for the experimental part:
as §1

Another series deals with MRC-5. Description: Inhibition of cell proliferation (MTS assay). Type of series: cell-based. The settings on record: Homo sapiens, MRC5, MRC-5, c-Met^loTrkB^lo (non-cancerous cells), 72 h. As for the experimental part:
as §1

A further series has as its system NCI-H460. As to the kind of experiment: Inhibition of cell proliferation (MTS assay). Format: cell-based. The settings on record: Homo sapiens, NCI-H460, c-Met^loTrkB^lo, 72 h. The protocol:
as §1

A further series concerns SK-N-SH. As to the kind of experiment: Inhibition of cell proliferation (MTS assay). Type of series: cell-based. The settings on record: Homo sapiens, c-Met^loTrkB^hi, 72 h. As for the experimental part:
as §1

A further series deals with SMMC-7721. Description: Inhibition of cell proliferation (MTS assay). Format: cell-based. The settings on record: Homo sapiens, SMMC-7721, c-Met^loTrkB^hi, 72 h. The protocol: as §1
Another series in a line: Half-life in plasma. Type of series: in vitro ADME. The settings on record: data not shown.
Series [1] has as its system HGF-induced vasculature formation. As to the kind of experiment: Matrigel plug assay, HGF-induced angiogenesis in vivo. Set-up: species or system BALB/c mice. The settings on record: Matrigel plug with HGF (50 ng/ml) and Indo5 (10 μM, 20 μM), 7 days. As for the experimental part: After 7 days, mice were sacrificed and the Matrigel plugs were fixed in 10% buffered formaldehyde, which was embedded in paraffin, and sectioned. The sections were stained with hematoxylin and eosin(H&E). H&E staining was performed to identify the formation and infiltration of new, functional microvessles.

Series [2] in a line: Cytotoxicity in non-cancerous cells. Format: cell-based. The settings on record: human.
A further series relates to orthotopic tumors. As to the kind of experiment: Histological examination of liver from mice bearing orthotopic tumors (H&E). Format: in vivo. The settings on record: 48 mg/kg Indo5. The text has this:
Figure S8. H&E staining of livers from mice bearing orthotopic tumors treated with the vehicle or Indo5.

Another series deals with Ba/F3-Tpr-Met cells. The settings on record: 0.5 μM Indo5.
The test system of a further series is wild-type Ba/F3 cells. As to the kind of experiment: Proliferation of wild-type Ba/F3 cells.
The subject of a further series is TrkA signaling. Description: NGF-induced TrkA signaling in SK-N-SH cells (Western blot). The settings on record: 1 μM Indo5, pretreated 2 h, NGF 500 ng/ml 5 min.
The test system of series [3] is EGF receptor-mediated signaling pathway. As to the kind of experiment: EGF receptor-mediated signaling pathway in A549 cells (Western blot). The settings on record: A549, Indo5 pretreated 2 h, 100 ng/ml EGF 5 min. On the technique in general: Immunoblotting shows a protein as a band on a membrane.

Chain of FGFR1 (P11362 22-822): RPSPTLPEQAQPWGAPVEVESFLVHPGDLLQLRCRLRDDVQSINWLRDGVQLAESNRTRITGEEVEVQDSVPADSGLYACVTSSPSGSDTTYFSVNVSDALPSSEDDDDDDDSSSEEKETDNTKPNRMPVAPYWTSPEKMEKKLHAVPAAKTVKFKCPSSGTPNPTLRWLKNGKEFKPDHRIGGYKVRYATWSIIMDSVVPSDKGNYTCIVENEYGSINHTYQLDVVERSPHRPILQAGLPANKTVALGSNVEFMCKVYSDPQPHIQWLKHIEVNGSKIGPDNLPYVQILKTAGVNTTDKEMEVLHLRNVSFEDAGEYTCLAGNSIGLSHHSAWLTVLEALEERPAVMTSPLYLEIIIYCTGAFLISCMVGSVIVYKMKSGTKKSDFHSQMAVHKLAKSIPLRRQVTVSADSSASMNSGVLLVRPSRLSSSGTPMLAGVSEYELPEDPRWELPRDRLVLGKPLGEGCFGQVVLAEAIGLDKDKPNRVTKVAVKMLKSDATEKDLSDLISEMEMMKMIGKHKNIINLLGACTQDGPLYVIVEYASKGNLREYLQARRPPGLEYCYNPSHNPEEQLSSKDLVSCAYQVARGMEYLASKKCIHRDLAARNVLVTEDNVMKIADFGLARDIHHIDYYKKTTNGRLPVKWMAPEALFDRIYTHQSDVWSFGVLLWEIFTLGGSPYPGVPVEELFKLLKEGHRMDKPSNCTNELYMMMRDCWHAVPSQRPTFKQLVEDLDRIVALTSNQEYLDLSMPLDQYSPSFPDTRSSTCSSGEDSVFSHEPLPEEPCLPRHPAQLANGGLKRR
Chain of Ephb1 (P54762 18-984): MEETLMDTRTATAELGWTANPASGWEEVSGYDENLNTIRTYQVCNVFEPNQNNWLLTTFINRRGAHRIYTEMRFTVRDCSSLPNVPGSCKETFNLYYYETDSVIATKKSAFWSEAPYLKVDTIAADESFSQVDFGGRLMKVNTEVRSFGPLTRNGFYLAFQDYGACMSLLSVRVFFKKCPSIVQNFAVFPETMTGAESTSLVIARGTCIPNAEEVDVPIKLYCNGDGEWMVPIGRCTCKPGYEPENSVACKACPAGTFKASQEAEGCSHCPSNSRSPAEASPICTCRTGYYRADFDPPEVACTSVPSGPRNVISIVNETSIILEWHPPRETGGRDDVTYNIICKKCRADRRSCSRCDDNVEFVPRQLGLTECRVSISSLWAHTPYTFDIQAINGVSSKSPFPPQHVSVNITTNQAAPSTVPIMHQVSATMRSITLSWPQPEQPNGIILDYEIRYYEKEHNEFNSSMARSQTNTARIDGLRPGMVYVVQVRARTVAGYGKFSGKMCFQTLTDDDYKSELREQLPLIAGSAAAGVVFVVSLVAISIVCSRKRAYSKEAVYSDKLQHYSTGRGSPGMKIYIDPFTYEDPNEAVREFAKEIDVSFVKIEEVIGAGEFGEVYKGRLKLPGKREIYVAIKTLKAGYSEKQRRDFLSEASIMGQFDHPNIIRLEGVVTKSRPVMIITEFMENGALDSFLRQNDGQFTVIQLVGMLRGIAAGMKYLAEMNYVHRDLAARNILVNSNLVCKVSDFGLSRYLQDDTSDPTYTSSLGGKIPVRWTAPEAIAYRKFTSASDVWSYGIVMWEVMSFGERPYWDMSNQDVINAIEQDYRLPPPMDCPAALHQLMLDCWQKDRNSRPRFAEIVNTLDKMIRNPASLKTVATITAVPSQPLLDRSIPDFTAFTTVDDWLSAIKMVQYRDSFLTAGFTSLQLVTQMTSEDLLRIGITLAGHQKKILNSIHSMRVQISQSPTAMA
Protocol for TrkA signaling: Data are shown as the mean ± S.D. and are representative of three independent experiments. ** p < 0.01, *** p < 0.001.
For western blots, cells were lysed with M-PER? Mammalian Protein Extraction Reagent (Pierce, Rockford, IL, USA). Then, western blot analysis was performed according to standard procedures. Chemiluminescent detection was conducted using supersignal substrate (Pierce) according to the manufacturer’s specifications.

One may read the IC50 as the concentration that gives 50% inhibition. As usually defined, the half-life is the time needed for the level to fall by half in the phase considered. High values mean slow loss, low ones fast loss. Turning to `Cc1ccccc1NS(=O)(=O)c1ccc2c(c1)/C(=C/c1nc3ccccc3[nH]1)C(=O)N2` [Indo5, 3-(1H-benzimidazol-2-methylene)-5-(2-methylphenylaminosulfo)-2-indolone], the IC50 on FGFR1 was > 10 µM; at Ephb1 it was > 10 µM; with A549, 1.62 ± 0.008 µM; in the series with BEL-7402, 5.605 ± 0.017 µM; in the series with HCC-LM3 it was 1.873 ± 0.012 µM; in the series on L02, 32.52 ± 0.075 µM. Besides, the IC50 was > 100 µM in the series on MRC-5; 9.185 ± 0.035 µM in the series on NCI-H460; 2.982 ± 0.019 µM with SK-N-SH; 3.598 ± 0.022 µM with SMMC-7721; > 30 µM in [2]. The compound also showed a half-life in “Half-life in plasma” of 5 min. Besides, in series [1], the “HGF-induced vasculature formation in vivo” value is reported as “dramatically blocked”. The “tumor cells in liver tissue (histological examination)” value in the series on orthotopic tumors was “no obvious tumor cells”. Also, the cell apoptosis entry in the series with Ba/F3-Tpr-Met cells is listed as “markedly induced cell apoptosis”. The “effect on cell proliferation” value in the series on wild-type Ba/F3 cells is on record as “no obvious effect”. In addition, in the series on TrkA signaling, the “NGF-induced TrkA signaling” value is “almost completely inhibited”. Moreover, the “activation of EGF receptor-mediated signaling pathway” value in series [3] was “no effect”.

Values taken from PMC6421704 (Journal of Experimental & Clinical Cancer Research : CR, 2019).
